Experimental findings from patent US3992391A, “1,3-Disubstituted thiourea compounds and preparation thereof” (priority 1972, dated 1976) are described below.

The structures appear in SMILES notation.

Assay [1] is described as follows: Effect on tissue-toxic hypoxia (survival time after KCN i.p.), life-prolonging rate (1). It is filed as in vivo, male mice (dd-strain). Particulars: Mus musculus, po, 100 mg/kg oral, 1 hour before KCN 10 mg/kg i.p.; untreated group 140 seconds; read-out: Life-prolonging rate (1): increase percent of survival time.
Assay [2] can be described thus: Effect on hypotonic hypoxia (survival time in nitrogen gas containing 1.5 % oxygen), life-prolonging rate (2). It is filed as in vivo, male mice (dd-strain). Conditions: Mus musculus, po, 100 mg/kg oral, 1 hour before 1.5 % oxygen in nitrogen; untreated group 8 minutes; read-out: Life-prolonging rate (2): increase percent of survival time. Here is the method: b. Effect on hyptonic hypoxia
To male mice (dd-strain) weighting 15 to 22 g were administered orally the present compounds in the dosage of 100 mg/kg, and after one hour, the mice were taken to a closed room, air in which was substituted with nitrogen gas containing 1.5 % oxygen by ventilating the nitrogen gas for 2 minutes. As sending a mixed gas into the room, the time for death was measured. The increase percent of survival time to the average survival time (8 minutes) of the group, to which the present compounds were not administered, is shown in Table II as life-prolonging rate (2).

As to `CN(C)CCCNC(=S)Nc1cccnc1`, the ILS at 100 mg/kg in assay [1] is 35%; in assay [2], 10%.

Regarding `S=C(NCCSCc1ccccc1)Nc1cccnc1`, the values for the ILS at 100 mg/kg in assay [1] and in assay [2] were 64% and 55%, respectively.

`CCN(CC)CCCNC(=S)Nc1cccnc1`: the ILS at 100 mg/kg in assay [1] was determined as 28%; in assay [2], 11%.

Turning to `OCCCNC(=S)Nc1cccnc1`, the ILS at 100 mg/kg in assay [1] is 115%; in assay [2], 100%.

For the compound `CC(C)(CO)NC(=S)Nc1cccnc1`, the ILS at 100 mg/kg is 67% in assay [1] and 50% in assay [2].

For `CC(O)CNC(=S)Nc1cccnc1` (stereo not shown), the ILS at 100 mg/kg in assay [1] was determined as 75%; in assay [2] it was 60%.

Consider `OCC(CO)(CO)NC(=S)Nc1cccnc1`, for which the ILS at 100 mg/kg in assay [1] turned out to be 61%; in assay [2], 59%.

Turning to `COCCCNC(=S)Nc1cccnc1`, the ILS at 100 mg/kg in assay [1] is 35%; in assay [2], 25%.

`O=C(O)CCCNC(=S)Nc1cccnc1`: the figures for the ILS at 100 mg/kg in assay [1] and in assay [2] were 127% and 78%, respectively.

Take `S=C(NCCSSCCNC(=S)Nc1cccnc1)Nc1cccnc1`: the figures for the ILS at 100 mg/kg in assay [1] and in assay [2] were 30% and 5%, respectively.

In the case of `CN(C)CCNC(=S)Nc1cccnc1`, the figures for the ILS at 100 mg/kg in assay [1] and in assay [2] were 61% and 46%, respectively.

As to `CCN(CC)CCNC(=S)Nc1cccnc1`, the ILS at 100 mg/kg in assay [1] is 89%; in assay [2], 40%.

Regarding `S=C(NNc1ccccc1)Nc1cccnc1`, the ILS at 100 mg/kg in assay [1] came to 125%; in assay [2], 108%.

With `CN(C)NC(=S)Nc1cccnc1`, the ILS at 100 mg/kg is 81% in assay [1] and 63% in assay [2].

Take `S=C(Nc1cccnc1)NN1CCN(Cc2ccccc2)CC1`: the ILS at 100 mg/kg in assay [1] was 124%; in assay [2] it was 80%.

As to `S=C(NN=Cc1ccccn1)Nc1cccnc1`, the values for the ILS at 100 mg/kg in assay [1] and in assay [2] were 92% and 81%, respectively.

Take `S=C(NN=Cc1cccnc1)Nc1cccnc1`: the ILS at 100 mg/kg in assay [1] turned out to be 135%; in assay [2], 114%.

As for `OCCNC(=S)Nc1ccncc1`, the ILS at 100 mg/kg was found to be 242% in assay [1] and 158% in assay [2].

In the case of `CN(C)CCCNC(=S)Nc1ccncc1`, the values for the ILS at 100 mg/kg in assay [1] and in assay [2] were 37% and 21%, respectively.

Consider `CN(Cc1ccccc1)NC(=S)Nc1ccncc1`, for which the ILS at 100 mg/kg in assay [1] was 156%; in assay [2] it was 58%.

As to `O=C(O)CCCNC(=S)Nc1ccccn1`, the results for the ILS at 100 mg/kg in assay [1] and in assay [2] were 72% and 53%, respectively.

Regarding `S=C(NCCSCc1ccccc1)Nc1ccccn1`, the ILS at 100 mg/kg in assay [1] came to 86%; in assay [2], 65%.

`CCN(CC)CCNC(=S)Nc1ccccn1`: the ILS at 100 mg/kg in assay [1] was 20%; in assay [2], 16%.
